Columns and labels:
[1] = molecular target: Mu-type opioid receptor (Cavia porcellus) (UniProt P97266); test: Maximal inhibition of muscle contraction in guinea pig ileum at 10000 nM; type: functional, tissue-based; set-up: scale not given: the % may be the effect or the level left
[2] = molecular target: Delta-type opioid receptor (Rattus norvegicus, UniProt P33533); test: Displacement of [3H]deltorphin-II from delta opioid receptor in rat brain synaptosomal membranes; type: cell membranes, Sprague-Dawley, Membrane
Mu-type opioid receptor [3] = molecular target: Mu-type opioid receptor (Rattus norvegicus, UniProt P33535); test: Displacement of [3H]DAMGO from mu opioid receptor expressed in rat brain synaptosomal membranes; type: cell membranes, Sprague-Dawley, Membrane
[4] = molecular target: Opioid receptors; mu & delta (Rattus norvegicus) (UniProt P33533+P33535); test: Selectivity ratio of rat mu opioid receptor over rat delta opioid receptor; type: protein assay
[5] = molecular target: T1, Delta-type opioid receptor (Mus musculus, UniProt P32300); test: Agonistic activity at delta opioid receptor in mouse vas deferens; type: functional, tissue-based
[6] = molecular target: T1, Delta-type opioid receptor; test: Displacement of deltorphin-II from delta opioid receptor in mouse vas deferens; conditions: read-out: pA2 (converted)
[7] = molecular target: Delta-type opioid receptor (Mus musculus) (UniProt P32300); test: Maximal inhibition of muscle contraction in mouse vas deferens at 10000 nM; type: functional, tissue-based; set-up: scale not given: the % may be the effect or the level left; conditions: Muscle tissue
Mu-type opioid receptor [8] = molecular target: T2, Mu-type opioid receptor (Cavia porcellus, UniProt P97266); test: Agonistic activity at mu opioid receptor in myenteric plexus longitudinal muscle of guinea pig ileum; type: functional, tissue-based, Hartley
Mu-type opioid receptor [9] = molecular target: T2, Mu-type opioid receptor; test: Displacement of endomorphin-2 from mu opioid receptor in guinea pig ileum; type: tissue-based, Hartley; conditions: read-out: pA2 (converted)

Chain of Delta-type opioid receptor (Mus musculus) (P32300 whole entry): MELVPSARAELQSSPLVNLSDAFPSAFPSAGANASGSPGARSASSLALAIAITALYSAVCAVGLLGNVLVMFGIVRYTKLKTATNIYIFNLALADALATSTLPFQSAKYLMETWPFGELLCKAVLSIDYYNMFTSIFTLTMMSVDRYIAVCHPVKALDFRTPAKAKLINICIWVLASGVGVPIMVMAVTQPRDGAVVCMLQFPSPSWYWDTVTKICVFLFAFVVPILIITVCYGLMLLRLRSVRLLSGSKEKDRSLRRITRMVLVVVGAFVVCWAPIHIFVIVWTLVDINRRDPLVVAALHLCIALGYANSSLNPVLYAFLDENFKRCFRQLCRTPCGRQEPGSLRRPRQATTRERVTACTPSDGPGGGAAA
T1 sequence (P32300 whole entry): as above
Chain of Mu-type opioid receptor (Rattus norvegicus, UniProt P33535) (P33535 whole entry): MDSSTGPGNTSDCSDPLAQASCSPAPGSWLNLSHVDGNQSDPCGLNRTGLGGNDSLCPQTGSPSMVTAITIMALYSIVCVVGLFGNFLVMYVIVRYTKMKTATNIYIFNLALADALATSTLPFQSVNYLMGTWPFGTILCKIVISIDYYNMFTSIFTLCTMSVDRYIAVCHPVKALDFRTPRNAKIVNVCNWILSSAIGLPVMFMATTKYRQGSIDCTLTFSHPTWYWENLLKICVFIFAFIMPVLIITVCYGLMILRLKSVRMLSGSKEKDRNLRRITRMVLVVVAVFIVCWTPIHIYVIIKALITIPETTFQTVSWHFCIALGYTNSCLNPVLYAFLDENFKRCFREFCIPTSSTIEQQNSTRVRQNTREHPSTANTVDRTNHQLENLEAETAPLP
T2 sequence (P97266 whole entry): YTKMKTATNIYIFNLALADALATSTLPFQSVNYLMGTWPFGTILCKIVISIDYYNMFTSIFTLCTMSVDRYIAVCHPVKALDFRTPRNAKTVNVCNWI
Chain of Mu-type opioid receptor (Cavia porcellus) (P97266 whole entry): as above
Chain of Delta-type opioid receptor (Rattus norvegicus, UniProt P33533) (P33533 whole entry): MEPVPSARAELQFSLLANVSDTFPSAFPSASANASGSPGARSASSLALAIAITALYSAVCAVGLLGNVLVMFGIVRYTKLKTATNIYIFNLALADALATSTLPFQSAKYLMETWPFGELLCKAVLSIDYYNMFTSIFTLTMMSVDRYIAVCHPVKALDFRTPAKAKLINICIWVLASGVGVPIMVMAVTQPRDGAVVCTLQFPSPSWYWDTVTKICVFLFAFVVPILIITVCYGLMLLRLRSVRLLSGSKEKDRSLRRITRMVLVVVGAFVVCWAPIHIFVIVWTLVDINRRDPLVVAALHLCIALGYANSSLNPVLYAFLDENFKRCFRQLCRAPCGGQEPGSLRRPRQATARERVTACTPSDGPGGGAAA
Chain of Opioid receptors; mu & delta (Rattus norvegicus) (P33533 whole entry, looked up): as the sequence (P33533 whole entry) above
Chain of Opioid receptors; mu & delta (Rattus norvegicus) (P33535 whole entry, looked up): as the sequence (P33535 whole entry) above

SMILES	Activity [1] [%]	Ki [2] [nM]	Ki (Mu-type opioid receptor [3]) [nM]	Ratio Ki [4]	IC50 [5] [nM]	Kb [6] [nM]	Activity [7] [%]	IC50 (Mu-type opioid receptor [8]) [nM]	Kb (Mu-type opioid receptor [9]) [nM]
Cc1cc(O)cc(C)c1C[C@H](N)C(=O)N1Cc2ccccc2CC1C(=O)NCCCCc1nc(O)c(CCNC(=O)C2Cc3ccccc3CN2C(=O)[C@@H](N)Cc2c(C)cc(O)cc2C)nc1C (stereo partly specified)	< 44	0.107	1.37	13	> 10000	0.0102	< 1	> 10000	
Cc1cc(O)cc(C)c1C[C@H](N)C(=O)N1Cc2ccccc2CC1C(=O)NCCCCc1nc(O)c(CCCCNC(=O)C2Cc3ccccc3CN2C(=O)[C@@H](N)Cc2c(C)cc(O)cc2C)nc1C (stereo partly specified)	< 34	0.323	1.74	5	> 10000	0.00871	< 1	> 10000	
Cc1cc(O)cc(C)c1C[C@H](N)C(=O)N1Cc2ccccc2CC1C(=O)NCCc1nc(O)c(CCNC(=O)C2Cc3ccccc3CN2C(=O)[C@@H](N)Cc2c(C)cc(O)cc2C)nc1C (stereo partly specified)	< 27	0.095	2.83	30	> 10000	0.0186	< 1	> 10000	166
Cc1cc(O)cc(C)c1C[C@H](N)C(=O)N1Cc2ccccc2CC1C(=O)NCCCCCCNC(=O)C1Cc2ccccc2CN1C(=O)[C@@H](N)Cc1c(C)cc(O)cc1C (stereo partly specified)		0.129	1.79		> 10000	0.024	< 1		
Cc1cc(O)cc(C)c1C[C@H](N)C(=O)N1Cc2ccccc2CC1C(=O)NCCCc1nc(O)c(CCCNC(=O)C2Cc3ccccc3CN2C(=O)[C@@H](N)Cc2c(C)cc(O)cc2C)nc1C (stereo partly specified)		0.155	3.08	20	> 10000	0.0275	< 1	7020	
Cc1cc(O)cc(C)c1C[C@H](N)C(=O)N1Cc2ccccc2CC1C(=O)NCCCCCCCCCCNC(=O)C1Cc2ccccc2CN1C(=O)[C@@H](N)Cc1c(C)cc(O)cc1C (stereo partly specified)		1.53	4.86	3	> 10000	0.0107	< 28	5420	
Cc1cc(O)cc(C)c1C[C@H](N)C(=O)N1Cc2ccccc2CC1C(=O)NCCCCc1[nH]c(=O)c(CCCNC(=O)C2Cc3ccccc3CN2C(=O)[C@@H](N)Cc2c(C)cc(O)cc2C)nc1C (stereo partly specified)		0.16	1.56		> 10000	0.0251		> 10000	
Cc1cc(O)cc(C)c1C[C@@H](C(=O)N1Cc2ccccc2CC1C(=O)NCCCCCCNC(=O)C1Cc2ccccc2CN1C(=O)[C@H](Cc1c(C)cc(O)cc1C)N(C)C)N(C)C (stereo partly specified)	< 1	0.06	2.21	37	> 10000	0.00525	< 1	> 10000	4.57
Cc1cc(O)cc(C)c1C[C@H](N)C(=O)N1Cc2ccccc2CC1C(=O)NCCCCc1nc(O)c(CCCNC(=O)C2Cc3ccccc3CN2C(=O)[C@@H](N)Cc2c(C)cc(O)cc2C)nc1C (stereo partly specified)	< 1			10			< 10		
Cc1cc(O)cc(C)c1C[C@@H](C(=O)N1Cc2ccccc2CC1C(=O)NCCCc1nc(O)c(CCCNC(=O)C2Cc3ccccc3CN2C(=O)[C@H](Cc2c(C)cc(O)cc2C)N(C)C)nc1C)N(C)C (stereo partly specified)	< 1	0.287	1.68	6	> 10000	0.038	< 1	> 10000	19.5
Cc1cc(O)cc(C)c1C[C@H](N)C(=O)N1Cc2ccccc2CC1C(=O)NCc1nc(O)c(CNC(=O)C2Cc3ccccc3CN2C(=O)[C@@H](N)Cc2c(C)cc(O)cc2C)nc1C (stereo partly specified)	< 15	0.163	3.76	23	> 10000	0.00603	< 1	> 10000	
Cc1cc(O)cc(C)c1C[C@H](N)C(=O)N1Cc2ccccc2CC1C(=O)NCCCCNC(=O)C1Cc2ccccc2CN1C(=O)[C@@H](N)Cc1c(C)cc(O)cc1C (stereo partly specified)	< 16	0.124	5.72	46	> 10000	0.0309	< 1	> 10000	102
Cc1cc(O)cc(C)c1C[C@H](N)C(=O)N1Cc2ccccc2CC1C(=O)NCCCCc1nc(C)c(CCCNC(=O)C2Cc3ccccc3CN2C(=O)[C@@H](N)Cc2c(C)cc(O)cc2C)nc1O (stereo partly specified)	< 9	0.092	2.28	25	> 10000	0.0339	22	> 10000	112

Source: ChEMBL document CHEMBL1141223, “Potent Dmt-Tic pharmacophoric delta- and mu-opioid receptor antagonists” (J Med Chem, 2005)
